From PubChem BioAssay (NCI)
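Where inhibition never reached the appropriate level, the endpoint shown equals the highest concentration tested. Otherwise, values were interpolated linearly from a five-concentration, 48-hour dose response in 96-well plates. GI50: concentration for 50% inhibition of growth. TGI: total growth inhibition.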

What was measured:
Test in all cases: NCI-60 cell line screen, 48 h
[1] = test system: SW-620 colon
[2] = test system: DLD-1 colon
[3] = test system: OVCAR-4 ovarian
[4] = test system: CAKI-1 renal
[5] = test system: 786-0 renal
[6] = test system: DMS 273 small cell lung
[7] = test system: SK-MEL-28 melanoma
[8] = test system: SF-539 CNS
[9] = test system: MDA-MB-231 breast
[10] = test system: BT-549 breast

SMILES	TGI [1]	TGI [2]	TGI [3]	TGI [4]	TGI [5]	TGI [6]	TGI [7]	TGI [8]	GI50 [1]	GI50 [2]	GI50 [3]	GI50 [4]	GI50 [5]	GI50 [7]	GI50 [8]	TGI [9]	TGI [10]	GI50 [9]	GI50 [10]
C[Si](C)(C)OC1(C#N)C2C3CC4C2C(=O)C2C4C3C21 (stereo not given)	> 100 µM	> 100 µM	> 100 µM	> 100 µM	> 100 µM	> 100 µM	> 100 µM	> 100 µM											
CCC1CN2CCc3cc(OC)c(OC)cc3C2CC1CC1c2cc(OC)c(OC)cc2CCN1C(=O)C1CCCN1C(=O)OCc1ccccc1 (stereo not given)	28 µM	31 µM	27.4 µM	47.3 µM	40.8 µM	30.3 µM	30.7 µM	33 µM											
N#CC(C(=O)CCC(=O)Nc1cccc(Cl)c1)c1ccccc1 (stereo not given)		> 100 µM	> 100 µM		> 100 µM	> 100 µM	> 100 µM	> 100 µM											
CC(=O)OC1CCn2nnc(CO[Si](C)(C)C(C)(C)C)c21 (stereo not given)	> 100 µM	> 100 µM	> 100 µM	> 100 µM	> 100 µM	> 100 µM	> 100 µM	> 100 µM											
Cc1cc2c(C)n(Cc3ccc(Cl)cc3Cl)nc2c(C#N)c1C	> 100 µM	> 100 µM	> 100 µM	> 100 µM	37.4 µM	> 100 µM	> 100 µM	> 62.5 µM											
CCOC(=O)C(=O)Nc1c(CC)cccc1C(C)C	> 100 µM	> 100 µM	> 100 µM	> 100 µM	> 100 µM	> 100 µM	> 100 µM	> 100 µM											
CCOC(=O)C(C)(c1cn(C)c2ccccc12)c1cn(C)c2ccccc12	> 100 µM	> 100 µM	> 100 µM	> 100 µM	> 100 µM	> 100 µM	> 100 µM	> 100 µM											
CCOC(=O)C1Oc2ccc([N+](=O)[O-])c3c2C1(O)CCC3 (stereo not given)	> 100 µM	> 100 µM	> 100 µM		> 100 µM	> 100 µM	> 100 µM	> 100 µM											
O=C(O)C1(P(=O)(O)O)CC1	> 100 µM	> 100 µM	> 100 µM	> 100 µM	> 100 µM	> 100 µM	> 100 µM	> 100 µM											
O=C1C(=O)N(c2ccc(Cl)c(Cl)c2)C(=O)C(=O)C1c1nc2ccccc2s1	> 100 µM	> 100 µM	> 100 µM	> 100 µM	> 100 µM	> 100 µM	> 100 µM	> 100 µM											
COC1CC(OS(=O)(=O)c2ccc(C)cc2)C(OC(=O)c2ccccc2)C(C)O1 (stereo not given)	> 100 µM	> 100 µM	> 100 µM	> 100 µM	> 100 µM	> 10 µM	> 100 µM	> 100 µM	> 100 µM	> 100 µM	> 100 µM	> 100 µM	> 100 µM	> 100 µM	> 100 µM				
O=S(=O)(c1ccccc1)C(CN1CCCCC1)S(=O)(=O)c1ccccc1	> 100 µM	> 100 µM	> 100 µM	> 100 µM	> 100 µM	> 100 µM	> 100 µM	> 100 µM											
CN(C)c1nc(=Nc2ccc3ccccc3c2)ss1	> 100 µM	> 100 µM	> 100 µM	> 100 µM	> 100 µM		> 100 µM	> 100 µM											
c1ccc(SC(CCCCC(Sc2ccccc2)Sc2ccccc2)Sc2ccccc2)cc1	> 100 µM	> 100 µM	> 100 µM	> 100 µM	> 100 µM	> 100 µM	> 100 µM	> 100 µM											
COc1ccc(OC)c(NC(=O)CCC/C(CC(=O)c2ccc(O)c(OC)c2)=N\NC(=O)C[N+](C)(C)C)c1	> 100 µM	> 100 µM	> 100 µM	> 100 µM	> 100 µM	> 100 µM	> 100 µM	> 100 µM											
CCCCNCC(=O)O[C@]1(CC)C(=O)OCc2c1cc1n(c2=O)Cc2cc3ccccc3nc2-1		> 100 µM	20.4 µM		0.946 µM	0.236 µM	> 93.8 µM	0.849 µM								> 100 µM	8.36 µM		
COc1cc(C(=O)C/C(CCC(=O)Nc2ccccc2[N+](=O)[O-])=N\NC(=O)CC#N)ccc1O	> 100 µM	> 100 µM	> 100 µM	> 100 µM	> 100 µM	> 100 µM	> 100 µM	> 100 µM											

SMILES	TGI [1]	TGI [2]	TGI [3]	TGI [4]	TGI [5]	TGI [6]	TGI [7]	TGI [8]	GI50 [1]	GI50 [2]	GI50 [3]	GI50 [4]	GI50 [5]	GI50 [7]	GI50 [8]	TGI [9]	TGI [10]	GI50 [9]	GI50 [10]
COc1ccc(C2=C(Cl)c3cc(OC)c(OC)cc3C2Cl)cc1OC (stereo not given)	34.5 µM	34.9 µM	47.5 µM	35.2 µM	41.5 µM	30.4 µM	34.5 µM												
CCOC(=O)c1oc2ccc(OC)c3c2c1CCC3	> 100 µM	> 100 µM	> 100 µM		> 100 µM	> 100 µM	> 100 µM	> 100 µM											
O=C1C=C(Br)c2c(-c3ccccc3)oc3cccc1c23	> 100 µM	> 100 µM	> 100 µM	> 100 µM	> 100 µM	> 100 µM	> 100 µM	> 94.2 µM								78.2 µM	> 100 µM		
C=C1COC(/C=C(\C)CC/C=C(\C)CCl)C1 (stereo not given)	> 100 µM	> 100 µM	> 100 µM		> 100 µM	> 100 µM	> 100 µM	> 100 µM											
Brc1cccc(C2SCc3nc4ccccc4n32)c1 (stereo not given)	> 100 µM	29.9 µM	63.3 µM	> 100 µM	44.5 µM		47.9 µM	40.9 µM											
O=C1OC(CCCl)(c2ccccc2)CC1CN1CCOCC1 (stereo not given)	39.2 µM	34 µM	> 100 µM	24.6 µM	24.4 µM		36.9 µM	70.1 µM											
Cc1c(C#N)c(=O)[nH]c(=O)n1CCN1CCN(C(=O)NCCCCCCNC(=O)N2CCN(CCn3c(C)c(C#N)c(=O)[nH]c3=O)CC2)CC1	> 100 µM	> 100 µM	> 100 µM	> 100 µM	> 100 µM	> 100 µM	> 100 µM	> 100 µM											
CCCCCCc1cc(C(=O)Nc2cccc(C(F)(F)F)c2)nc(N)n1	> 100 µM	> 100 µM	> 100 µM	> 100 µM	> 100 µM	> 100 µM	> 100 µM	> 100 µM											
CS(=O)(=O)Oc1cccc(/C=N/N=C(\N)NO)c1	63.4 µM	> 100 µM	> 100 µM	> 100 µM	54.3 µM	65.8 µM	> 100 µM	> 100 µM											
COc1cc2c(cc1OCCCCOc1cc3c(cc1OC)C(=O)N1CCC[C@H]1CN3)N=C[C@@H]1CCCN1C2=O	> 22.9 µM		> 100 µM		> 100 µM		11.8 µM	2.89 µM	0.931 µM		4.61 µM	0.344 µM	2.94 µM	2.86 µM	0.419 µM	5.26 µM	5.75 µM	1.05 µM	0.357 µM
Nn1c(-c2ccccc2Cl)nc2ccccc2c1=O	> 100 µM	> 100 µM	> 100 µM	> 100 µM	> 100 µM	> 100 µM	> 100 µM	> 100 µM											
C=C1CC[C@@H]2[C@](C)(COC(C)=O)[C@@H](O)CC[C@@]2(C)[C@@H]1COc1ccc2ccc(=O)oc2c1	> 100 µM		> 100 µM	> 100 µM	> 100 µM		> 100 µM	> 100 µM	> 100 µM		> 100 µM	> 100 µM	31 µM	> 100 µM	53.3 µM	> 100 µM	> 100 µM	> 100 µM	47.8 µM
O=c1[nH]c2ccccc2nc1-c1c[nH]c2ccccc12	> 100 µM		> 100 µM	> 100 µM	> 100 µM		> 100 µM	> 100 µM	> 100 µM		> 100 µM	2.49 µM	> 100 µM	> 100 µM	> 100 µM	> 100 µM	> 100 µM	7.38 µM	> 100 µM
COc1cc2c(cc1OC(=O)CC(C)O)C1C(OC2=O)C(OC(C)=O)C=C2CCN(C)[C@H]21 (stereo not given in full)	> 100 µM	> 100 µM	> 100 µM	> 100 µM	53.7 µM	> 100 µM	> 100 µM	52.8 µM											
COc1cc2nc(N3CCCC3)nc(NCC3CCCCC3)c2cc1OC	2.89 µM		2.71 µM	2.64 µM	3.11 µM		2.91 µM	2.15 µM	1.39 µM		1.25 µM	1.34 µM	1.47 µM	1.55 µM	0.817 µM	3.04 µM	2.78 µM	1.53 µM	1.41 µM
COc1cccc(NC(=O)c2sc3nc4c(cc3c2N)CN(Cc2ccccc2)CC4)c1	72.2 µM		19.7 µM	> 100 µM	20.8 µM		29.7 µM	6.56 µM	1.85 µM		2.68 µM	11.7 µM	3.61 µM	2.8 µM	1.99 µM	75.3 µM	26.2 µM	11.4 µM	2.83 µM
CCCCCCCCCCCC(=O)OCCOCCOCCOCCOCCOCc1ccc(OC)cc1	> 100 µM	> 100 µM	> 100 µM	> 100 µM	> 100 µM	> 100 µM	> 100 µM												
